Experimental data: ChEMBL document CHEMBL5365497, “Developing Novel Coumarin-Containing Azoles Antifungal Agents by the Scaffold Merging Strategy for Treating Azole-Resistant Candidiasis” (J Med Chem, 2023)
Values after ≈ are worked out from the molar mass of the structure shown. Active and inactive are the calls of the source. The calls are words filed in the database; no cut-off is given here.

Columns and labels:
Candida albicans [1] = test: Antifungal activity against Candida albicans CPCC400616 assessed as fungal growth inhibition by CLSI based microdilution method; format: functional
Candida albicans [2] = test: Antifungal activity against Candida albicans SC5314 assessed as fungal growth inhibition by CLSI based microdilution method; format: functional
Candida parapsilosis = test: Antifungal activity against Candida parapsilosis assessed as fungal growth inhibition by CLSI based microdilution method; format: functional; details: Lodderomyces parapsilosis
Cryptococcus neoformans = test: Antifungal activity against Cryptococcus neoformans assessed as fungal growth inhibition by CLSI based microdilution method; format: functional
[3] = molecular target: T1, Lanosterol 14-alpha demethylase (Candida albicans (strain SC5314 / ATCC MYA-2876) (Yeast), UniProt P10613); test: Inhibition of CYP51 in Candida albicans SC5314 assessed as ergosterol level at 0.03125 ug/ml incubated for 24 hrs by GC-MS analysis (reference value: 97.58 %); set-up: scale not given: the % may be the effect or the level left; details: at 0.03125 µg/mL
T1 sequence (P10613 whole entry): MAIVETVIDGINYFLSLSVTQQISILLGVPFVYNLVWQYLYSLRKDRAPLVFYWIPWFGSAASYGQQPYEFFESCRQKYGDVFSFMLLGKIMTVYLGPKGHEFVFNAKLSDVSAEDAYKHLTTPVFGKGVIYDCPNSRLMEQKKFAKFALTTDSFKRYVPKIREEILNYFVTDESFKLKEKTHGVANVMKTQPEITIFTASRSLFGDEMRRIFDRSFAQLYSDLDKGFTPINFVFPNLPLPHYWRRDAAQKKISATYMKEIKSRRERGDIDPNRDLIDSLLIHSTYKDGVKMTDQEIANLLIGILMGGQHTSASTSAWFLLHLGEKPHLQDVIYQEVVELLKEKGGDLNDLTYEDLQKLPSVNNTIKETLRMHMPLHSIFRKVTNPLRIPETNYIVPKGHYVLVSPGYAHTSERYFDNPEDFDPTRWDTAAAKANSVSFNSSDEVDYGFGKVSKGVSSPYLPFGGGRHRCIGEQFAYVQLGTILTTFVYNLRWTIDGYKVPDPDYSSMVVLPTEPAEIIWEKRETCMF

[4] = molecular target: T1, Lanosterol 14-alpha demethylase; test: Inhibition of CYP51 in Candida albicans SC5314 assessed as increase in eburicol level at 0.03125 ug/ml incubated for 24 hrs by GC-MS analysis; details: at 0.03125 µg/mL
[5] = molecular target: T1, Lanosterol 14-alpha demethylase; test: Inhibition of CYP51 in Candida albicans SC5314 assessed as increase in obtusifoliol level at 0.03125 ug/ml incubated for 24 hrs by GC-MS analysis; details: at 0.03125 µg/mL
[6] = molecular target: T1, Lanosterol 14-alpha demethylase; test: Inhibition of CYP51 in Candida albicans SC5314 assessed as increase in lanosterol level at 0.03125 ug/ml incubated for 24 hrs by GC-MS analysis; details: at 0.03125 µg/mL
Candida albicans [7] = test: Antifungal activity against Candida albicans SC5314 assessed as destruction of cell wall at 16 ug/ml incubated for 24 hrs by TEM analysis; format: functional, organism-based; details: dose 16.0 µg/ml
Candida albicans [8] = test: Antifungal activity against Candida albicans SC5314 assessed as cell lysis at 16 ug/ml incubated for 24 hrs by TEM analysis; format: functional, organism-based; details: dose 16.0 µg/ml
Candida albicans [9] = test: Antifungal activity against Candida albicans SC5314 assessed as leakage of endogenous material within cells at 16 ug/ml incubated for 24 hrs by TEM analysis; format: functional, organism-based; details: dose 16.0 µg/ml
Candida albicans [10] = test: Antifungal activity against fluconazole-resistant Candida albicans CaR assessed as fungal growth inhibition by CLSI based microdilution method; format: functional
Candida albicans [11] = test: Antifungal activity against fluconazole-resistant Candida albicans 17# assessed as fungal growth inhibition by CLSI based microdilution method; format: functional
Candida albicans [12] = test: Antifungal activity against fluconazole-resistant Candida albicans 632 assessed as fungal growth inhibition by CLSI based microdilution method; format: functional
Candida albicans [13] = test: Antifungal activity against fluconazole-resistant Candida albicans 904 assessed as fungal growth inhibition by CLSI based microdilution method; format: functional
Candida albicans [14] = test: Antifungal activity against Candida albicans CPCC400616 assessed as inhibition of yeast to hypha morphological transition at 2 ug/ml incubated for 4 hrs by inverted microscopy; format: functional, organism-based; details: dose 2.0 µg/ml
Candida albicans [15] = test: Antifungal activity against fluconazole-resistant Candida albicans 904 assessed as inhibition of yeast to hypha morphological transition at 16 ug/ml incubated for 4 hrs by inverted microscopy; format: functional, organism-based; details: dose 16.0 µg/ml
Candida albicans [16] = test: Antibiofilm activity against Candida albicans CPCC400616 incubated for 24 hrs by XTT reduction assay; format: functional, organism-based; details: dose <= 128.0 µg/ml
Candida albicans [17] = test: Antibiofilm activity against fluconazole-resistant Candida albicans 904 incubated for 24 hrs by XTT reduction assay; format: functional, organism-based; details: dose <= 128.0 µg/ml
Candida albicans [18] = test: Antifungal activity against fluconazole-resistant Candida albicans 904 assessed as reduction in EFG1 expression at 16 ug/ml incubated for 12 hrs by RT-PCR analysis; format: functional, organism-based; details: dose 16.0 µg/ml
Candida albicans [19] = test: Antifungal activity against Candida albicans CPCC400616 assessed as reduction in TEC1 expression at 2 ug/ml incubated for 12 hrs by RT-PCR analysis; format: functional, organism-based; details: dose 2.0 µg/ml
Candida albicans [20] = test: Antifungal activity against fluconazole-resistant Candida albicans 904 assessed as reduction in TEC1 expression at 16 ug/ml incubated for 12 hrs by RT-PCR analysis; format: functional, organism-based; details: dose 16.0 µg/ml
Candida albicans [21] = test: Antifungal activity against fluconazole-resistant Candida albicans 904 assessed as reduction in ALS3 expression at 16 ug/ml incubated for 12 hrs by RT-PCR analysis; format: functional, organism-based; details: dose 16.0 µg/ml
Candida albicans [22] = test: Antifungal activity against fluconazole-resistant Candida albicans 904 assessed as decrease in ERG11 expression at 16 ug/ml measured after 16 hrs by RT-PCR analysis; format: functional, organism-based; details: dose 16.0 µg/ml
Candida albicans [23] = test: Antifungal activity against fluconazole-resistant Candida albicans 904 assessed as decrease in MDR1 expression at 16 ug/ml measured after 16 hrs by RT-PCR analysis; format: functional, organism-based; details: dose 16.0 µg/ml
Candida albicans [24] = test: Induction of ROS production in fluconazole-resistant Candida albicans 904 at 64 ug/ml incubated for 30 mins by fluorescence microscopy; format: functional, organism-based; details: dose 64.0 µg/ml
[25] = Metabolic stability in mouse liver microsomes assessed as half life incubated for 5 to 60 mins by LC-MS/MS analysis; format: ADME, Microsome; details: time 5-60 min
[26] = Stability in mouse plasma assessed as half life at 1 uM measured for 180 mins by LC-MS/MS analysis; format: ADME, cell-free
Candida albicans [27] = test: Antifungal activity against Candida albicans SC5314 infected in ICR mouse assessed as reduction in fungal kidney burden by measuring CFU at 0.6 mg/kg, ip measured after 5 days; format: functional, organism-based; details: time 5.0 day
Candida albicans [28] = test: Antifungal activity against fluconazole-resistant Candida albicans 904 infected in ICR mouse assessed as reduction in fungal kidney burden by measuring CFU administered intraperitoneally measured after 5 days; format: functional, organism-based; details: dose 0.6 mg/kg, route ip, time 5.0 day
Cytochrome P450 2C9 = Cytochrome P450 2C9 (Homo sapiens, UniProt P11712); test: Inhibition of CYP2C9 in human liver microsomes using diclofenac as substrate preincubated for 5 mins followed by NADPH addition by LC-MS/MS analysis; format: ADME, Microsome
Chain of Cytochrome P450 2C9 (P11712 whole entry): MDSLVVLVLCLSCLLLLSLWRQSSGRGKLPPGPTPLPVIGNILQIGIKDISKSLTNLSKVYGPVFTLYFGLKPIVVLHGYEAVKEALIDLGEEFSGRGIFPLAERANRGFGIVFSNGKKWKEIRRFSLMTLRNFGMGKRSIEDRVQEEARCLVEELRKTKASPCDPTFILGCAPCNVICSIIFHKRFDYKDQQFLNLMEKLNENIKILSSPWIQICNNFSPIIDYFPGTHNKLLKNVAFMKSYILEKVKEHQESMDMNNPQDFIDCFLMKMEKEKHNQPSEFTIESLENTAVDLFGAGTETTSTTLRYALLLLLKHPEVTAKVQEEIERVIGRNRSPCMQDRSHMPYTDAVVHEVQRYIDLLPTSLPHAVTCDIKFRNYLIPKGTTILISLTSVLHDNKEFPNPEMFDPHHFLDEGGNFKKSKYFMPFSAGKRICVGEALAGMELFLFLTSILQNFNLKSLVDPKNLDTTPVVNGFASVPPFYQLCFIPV

Cytochrome P450 2D6 = Cytochrome P450 2D6 (Homo sapiens, UniProt P10635); test: Inhibition of CYP2D6 in human liver microsomes using dextromethorphan as substrate preincubated for 5 mins followed by NADPH addition by LC-MS/MS analysis; format: ADME, Microsome
Chain of Cytochrome P450 2D6 (P10635 whole entry): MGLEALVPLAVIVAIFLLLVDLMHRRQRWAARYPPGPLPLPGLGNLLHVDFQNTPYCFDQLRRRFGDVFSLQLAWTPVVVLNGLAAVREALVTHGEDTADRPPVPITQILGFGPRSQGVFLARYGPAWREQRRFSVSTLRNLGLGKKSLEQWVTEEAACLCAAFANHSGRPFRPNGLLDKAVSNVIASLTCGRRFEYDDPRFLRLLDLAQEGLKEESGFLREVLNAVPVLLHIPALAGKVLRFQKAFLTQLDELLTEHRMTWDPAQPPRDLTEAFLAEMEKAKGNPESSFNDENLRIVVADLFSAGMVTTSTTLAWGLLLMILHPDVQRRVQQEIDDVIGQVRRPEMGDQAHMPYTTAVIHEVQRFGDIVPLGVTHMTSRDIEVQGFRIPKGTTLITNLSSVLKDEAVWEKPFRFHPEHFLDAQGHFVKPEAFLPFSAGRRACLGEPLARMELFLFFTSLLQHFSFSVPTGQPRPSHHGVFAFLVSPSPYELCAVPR

[29] = Cytotoxicity against human MRC5 cells assessed as cell growth inhibition by MTT assay; format: toxicity, cell-based
[30] = Subacute toxicity in KM mouse assessed as abnormal behaviour at 100 mg/kg administered via gavage daily for 14 days; format: organism-based; details: in vivo, po, 336 h, time 14 day
[31] = Subacute toxicity in KM mouse assessed as mortality at 100 mg/kg administered via gavage daily for 14 days; format: organism-based; details: in vivo, po, 336 h, time 14 day
[32] = Subacute toxicity in KM mouse assessed as liver damage at 100 mg/kg administered via gavage daily for 7 days; format: organism-based; details: in vivo, po, 168 h, time 7 day
[33] = Subacute toxicity in KM mouse assessed as liver inflammation at 100 mg/kg administered via gavage daily for 7 days; format: organism-based; details: in vivo, po, 168 h, time 7 day
[34] = Subacute toxicity in female KM mouse assessed as kidney damage at 100 mg/kg administered via gavage daily for 7 days; format: organism-based; details: in vivo, po, 168 h, time 7 day
[35] = Subacute toxicity in female KM mouse assessed as kidney inflammation at 100 mg/kg administered via gavage daily for 7 days; format: organism-based; details: in vivo, po, 168 h, time 7 day
[36] = Subacute toxicity in female KM mouse assessed as liver inflammation at 100 mg/kg administered via gavage daily for 14 days; format: organism-based; details: in vivo, po, 336 h, time 14 day

Compound `O=c1ccc2ccc(COC(Cn3ccnc3)c3ccc(Cl)cc3Cl)cc2o1` (stereo not given) has an MIC (Candida albicans [1]) of 0.06 µg/mL (≈ 0.144 µM), an MIC (Candida albicans [2]) of 0.03 µg/mL (≈ 0.0722 µM) and an MIC (Candida parapsilosis) of 0.5 µg/mL (≈ 1.2 µM). For the same compound, the MIC (Cryptococcus neoformans) was 2 µg/mL (≈ 4.82 µM), the Activity [3] was 1.54% and the “inhibition (INH)” value [4] was “Active”. For the same compound, the “inhibition (INH)” value [5] was “Active”, the “inhibition (INH)” value [6] was “Active” and the Activity (Candida albicans [7]) was “Active”. The Activity (Candida albicans [8]) was “Active”, the Activity (Candida albicans [9]) was “Active” and the MIC (Candida albicans [10]) was 1 µg/mL (≈ 2.41 µM). The MIC (Candida albicans [11]) was 4 µg/mL (≈ 9.63 µM), the MIC (Candida albicans [12]) was 4 µg/mL (≈ 9.63 µM) and the MIC (Candida albicans [13]) was 1 µg/mL (≈ 2.41 µM). For the same compound, the inhibition (Candida albicans [14]) was “Active”, the inhibition (Candida albicans [15]) was “Active” and the Activity (Candida albicans [16]) was “Dose-Dependent Effect”. The Activity (Candida albicans [17]) was “Dose-Dependent Effect”, the Activity (Candida albicans [18]) was “Active” and the Activity (Candida albicans [19]) was “Active”. The Activity (Candida albicans [20]) was “Active”, the Activity (Candida albicans [21]) was “Active” and the Activity (Candida albicans [22]) was “Active”. For the same compound, the Activity (Candida albicans [23]) was “Active”, the Activity (Candida albicans [24]) was “Active” and the half-life [25] was 15.2 min. For the same compound, the half-life at 1 µM [26] was over 360 min, the Activity (Candida albicans [27]) was “Active” and the Activity (Candida albicans [28]) was “Dose-Dependent Effect”. It also gave an IC50 (Cytochrome P450 2C9) of 138 nM, an IC50 (Cytochrome P450 2D6) of 1140 nM and an IC50 [29] of 24400 nM. For the same compound, the Activity [30] was “Non-Toxic”, the Activity [31] was “Non-Toxic” and the Activity [32] was “Toxic”. For the same compound, the Activity [33] was “Toxic”, the Activity [34] was “Toxic” and the Activity [35] was “Non-Toxic”. For the same compound, the Activity [36] was “Toxic”.
